Data from US20110070232A1, “Combination Therapy with an Antitumor Alkaloid” (Pharma Mar, S.A., priority 2008, published 2011).
Where two headings read alike, the source gives them in different places.

Legend:
BxPC-3 tumors = type: in vivo, mice; conditions: mg/kg/day: PM00104 0.90 IV
Procedure: Female CB17.SCID mice (Charles River Lab.) were utilized for all experiments. Animals were housed in ventilated rack caging with food and water ad libitum. The mice were acclimated for at least 5 days prior to tumor implantation with a tumor cell suspension.
The tumor model used in these studies was BxPC-3 cell line, which was obtained from the ATCC (Manassas, Va.).
Treatments were initiated on DPI 9.
(§1) Tumor size measurements were recorded twice weekly from the treatment initiation until the termination of the study.
(§2) Mean, standard deviation and standard error of the mean were determined for tumor volume for all animal groups at all assessments. Student's t test was performed on tumor volumes at each measurement day, including at the end of the study, to determine whether there were any statistically significant differences between combination treatment groups and single monotherapy treatment groups.

MRI-H-254 tumors [1] = type: in vivo, mice
Procedure: (§3) Female athymic nude mice (Harlan Sprague Dawley, Madison, Wis.) were utilized for all experiments. Animals were housed in ventilated rack caging with food and water ad libitum. The mice were acclimated for at least 5 days prior to tumor implantation with tumor fragments.
Bacterial culture was taken on cells used to implant the study.
Treatments were initiated on DPI 20.
5-FU was provided in the form of injection vials which was diluted with 0.9% sterile Saline.
as §1, §2

MRI-H-254 tumors [2] = type: in vivo, mice; remark: listed apart in the source
Procedure: as §3
Treatments were initiated on DPI 16.
as §1, §2

[3] = tested on: HCT-116 (colon cancer) cell line; assay: IC50 determination, MIT (tetrazolium) assay, 72 h (Example 18); type: cell-based, human; conditions: Homo sapiens; HCT-116, 72 hours of drug exposure
Procedure: HCT-116 cells were grown in McCoy's supplemented with 10% Fetal Bovine Serum (FBS), 1% penicillin/streptomycin and 2 mM L-glutamine.
Before plating, cell cultures were trypsinized and cell number estimated using an automated flow cytometer.
Cells were harvested and seeded in 96 well microtiter plates at the appropriate cell density (5,000-10,000 cells) in 150 μL of media and incubated for 24 hours to allow the cells to attach before drug addition.
After the incubation period (72 hours), 50 μL of MIT solution was added to each microtiter well and incubated for further 8 hours at 37° C. The culture medium was then removed and 50 μl, of DMSO were added to dissolve the MIT crystals. Optical densities were read at 540 nm on spectrophotometer microplate reader.
IC50 values were calculated from an average of two to four assays for each of the test agents.

[4] = PM00104 0.90 IV, 5-FU 100 IP mg/kg/day (G2, G3, G5), DPI 20, 27, 34
[5] = day 16, PM00104 0.90, cisplatin 5, irinotecan 18, paclitaxel 25 mg/kg/day
[6] = day 20, PM00104 0.90, cisplatin 5, irinotecan 18, paclitaxel 25 mg/kg/day
[7] = day 23, PM00104 0.90, cisplatin 5, irinotecan 18, paclitaxel 25 mg/kg/day
[8] = day 26, PM00104 0.90, cisplatin 5, irinotecan 18, paclitaxel 25 mg/kg/day
[9] = day 29, PM00104 0.90, cisplatin 5, irinotecan 18, paclitaxel 25 mg/kg/day
[10] = day 33, PM00104 0.90, cisplatin 5, irinotecan 18, paclitaxel 25 mg/kg/day
[11] = day 40, PM00104 0.90, cisplatin 5, irinotecan 18, paclitaxel 25 mg/kg/day
[12] = day 48, PM00104 0.90, cisplatin 5, irinotecan 18, paclitaxel 25 mg/kg/day

Compound: COc1c(C)cc2c(c1O)[C@@H]1[C@@H]3Cc4c(OC(C)=O)c(C)c5c(c4[C@H](CNC(=O)/C=C/c4cccc(C(F)(F)F)c4)N3[C@@H](O)[C@H](C2)N1C)OCO5 [PM00104]
- % Inhibition (BxPC-3 tumors; day 9, erlotinib 15 PO): −3.8%
- % Inhibition (BxPC-3 tumors; day 9, erlotinib 30 PO): −3.8%
- % Inhibition (BxPC-3 tumors; day 9, erlotinib 50 PO): −3.8%
- % T/C on day (BxPC-3 tumors; day 9, erlotinib 50 PO): 103.8%
- % Inhibition (BxPC-3 tumors; day 12, erlotinib 15 PO): 10.0%
- % Inhibition (BxPC-3 tumors; day 12, erlotinib 30 PO): 10.0%
- % Inhibition (BxPC-3 tumors; day 12, erlotinib 50 PO): 10.0%
- % T/C on day (BxPC-3 tumors; day 12, erlotinib 50 PO): 90.0%
- % Inhibition (BxPC-3 tumors; day 15, erlotinib 15 PO): −20.0%
- % Inhibition (BxPC-3 tumors; day 15, erlotinib 30 PO): −20.0%
- % Inhibition (BxPC-3 tumors; day 15, erlotinib 50 PO): −20.0%
- % T/C on day (BxPC-3 tumors; day 15, erlotinib 50 PO): 120.0%
- % Inhibition (BxPC-3 tumors; day 19, erlotinib 15 PO): 1.4%
- % Inhibition (BxPC-3 tumors; day 19, erlotinib 30 PO): 1.4%
- % Inhibition (BxPC-3 tumors; day 19, erlotinib 50 PO): 1.4%
- % T/C on day (BxPC-3 tumors; day 19, erlotinib 50 PO): 98.6%
- % Inhibition (BxPC-3 tumors; day 21, erlotinib 15 PO): 30.1%
- % Inhibition (BxPC-3 tumors; day 21, erlotinib 30 PO): 30.1%
- % Inhibition (BxPC-3 tumors; day 21, erlotinib 50 PO): 30.1%
- % T/C on day (BxPC-3 tumors; day 21, erlotinib 50 PO): 69.9%
- % Inhibition (BxPC-3 tumors; day 26, erlotinib 15 PO): 17.4%
- % Inhibition (BxPC-3 tumors; day 26, erlotinib 30 PO): 17.4%
- % Inhibition (BxPC-3 tumors; day 26, erlotinib 50 PO): 17.4%
- % T/C on day (BxPC-3 tumors; day 26, erlotinib 50 PO): 82.6%
- % Inhibition (BxPC-3 tumors; day 29, erlotinib 15 PO): 30.6%
- % Inhibition (BxPC-3 tumors; day 29, erlotinib 30 PO): 30.6%
- % Inhibition (BxPC-3 tumors; day 29, erlotinib 50 PO): 30.6%
- % T/C on day (BxPC-3 tumors; day 29, erlotinib 50 PO): 69.4%
- % Inhibition (BxPC-3 tumors; day 33, erlotinib 15 PO): 17.8%
- % Inhibition (BxPC-3 tumors; day 33, erlotinib 30 PO): 17.8%
- % Inhibition (BxPC-3 tumors; day 33, erlotinib 50 PO): 17.8%
- % T/C on day (BxPC-3 tumors; day 33, erlotinib 50 PO): 82.2%
- % Inhibition (BxPC-3 tumors; day 40, erlotinib 15 PO): 14.2%
- % Inhibition (BxPC-3 tumors; day 40, erlotinib 30 PO): 14.2%
- % Inhibition (BxPC-3 tumors; day 40, erlotinib 50 PO): 14.2%
- % T/C on day (BxPC-3 tumors; day 40, erlotinib 50 PO): 85.8%
- % T/C on day 20 (MRI-H-254 tumors [1]; [4]): 98.7%
- % T/C on day 23 (MRI-H-254 tumors [1]; [4]): 95.9%
- % T/C on day 26 (MRI-H-254 tumors [1]; [4]): 83.7%
- % T/C on day 30 (MRI-H-254 tumors [1]; [4]): 75.3%
- % T/C on day 34 (MRI-H-254 tumors [1]; [4]): 53.1%
- % T/C on day 36 (MRI-H-254 tumors [1]; [4]): 46.5%
- % T/C on day 43 (MRI-H-254 tumors [1]; [4]): 26.9%
- % T/C on day 49 (MRI-H-254 tumors [1]; [4]): 36.7%
- % T/C on day 56 (MRI-H-254 tumors [1]; [4]): 50.6%
- % T/C on day 63 (MRI-H-254 tumors [1]; [4]): 81.3%
- % Inhibition (MRI-H-254 tumors [1]; day 20, PM00104 0.9 and 5-FU 50 mg/kg/day): 1.3%
- % Inhibition (MRI-H-254 tumors [1]; day 20, PM00104 0.9 and 5-FU 100 mg/kg/day): 1.3%
- % Inhibition (MRI-H-254 tumors [1]; day 23, PM00104 0.9 and 5-FU 50 mg/kg/day): 4.1%
- % Inhibition (MRI-H-254 tumors [1]; day 23, PM00104 0.9 and 5-FU 100 mg/kg/day): 4.1%
- % Inhibition (MRI-H-254 tumors [1]; day 26, PM00104 0.9 and 5-FU 50 mg/kg/day): 16.3%
- % Inhibition (MRI-H-254 tumors [1]; day 26, PM00104 0.9 and 5-FU 100 mg/kg/day): 16.3%
- % Inhibition (MRI-H-254 tumors [1]; day 30, PM00104 0.9 and 5-FU 50 mg/kg/day): 24.7%
- % Inhibition (MRI-H-254 tumors [1]; day 30, PM00104 0.9 and 5-FU 100 mg/kg/day): 24.7%
- % Inhibition (MRI-H-254 tumors [1]; day 34, PM00104 0.9 and 5-FU 50 mg/kg/day): 46.9%
- % Inhibition (MRI-H-254 tumors [1]; day 34, PM00104 0.9 and 5-FU 100 mg/kg/day): 46.9%
- % Inhibition (MRI-H-254 tumors [1]; day 36, PM00104 0.9 and 5-FU 50 mg/kg/day): 53.5%
- % Inhibition (MRI-H-254 tumors [1]; day 36, PM00104 0.9 and 5-FU 100 mg/kg/day): 53.5%
- % Inhibition (MRI-H-254 tumors [1]; day 43, PM00104 0.9 and 5-FU 50 mg/kg/day): 73.1%
- % Inhibition (MRI-H-254 tumors [1]; day 43, PM00104 0.9 and 5-FU 100 mg/kg/day): 73.1%
- % Inhibition (MRI-H-254 tumors [1]; day 49, PM00104 0.9 and 5-FU 50 mg/kg/day): 63.3%
- % Inhibition (MRI-H-254 tumors [1]; day 49, PM00104 0.9 and 5-FU 100 mg/kg/day): 63.3%
- % Inhibition (MRI-H-254 tumors [1]; day 56, PM00104 0.9 and 5-FU 50 mg/kg/day): 49.4%
- % Inhibition (MRI-H-254 tumors [1]; day 56, PM00104 0.9 and 5-FU 100 mg/kg/day): 49.4%
- % Inhibition (MRI-H-254 tumors [1]; day 63, PM00104 0.9 and 5-FU 50 mg/kg/day): 18.7%
- % Inhibition (MRI-H-254 tumors [1]; day 63, PM00104 0.9 and 5-FU 100 mg/kg/day): 18.7%
- % Inhibition (MRI-H-254 tumors [2]; day 16, PM00104 0.90, cisplatin 3, irinotecan 10, paclitaxel 12.5 mg/kg/day): 2.0%
- % Inhibition (MRI-H-254 tumors [2]; [5]): 2.0%
- % T/C (MRI-H-254 tumors [2]; [5]): 98.0%
- % Inhibition (MRI-H-254 tumors [2]; day 20, PM00104 0.90, cisplatin 3, irinotecan 10, paclitaxel 12.5 mg/kg/day): 6.1%
- % Inhibition (MRI-H-254 tumors [2]; [6]): 6.1%
- % T/C (MRI-H-254 tumors [2]; [6]): 93.9%
- % Inhibition (MRI-H-254 tumors [2]; day 23, PM00104 0.90, cisplatin 3, irinotecan 10, paclitaxel 12.5 mg/kg/day): 43.9%
- % Inhibition (MRI-H-254 tumors [2]; [7]): 43.9%
- % T/C (MRI-H-254 tumors [2]; [7]): 56.1%
- % Inhibition (MRI-H-254 tumors [2]; day 26, PM00104 0.90, cisplatin 3, irinotecan 10, paclitaxel 12.5 mg/kg/day): 59.4%
- % Inhibition (MRI-H-254 tumors [2]; [8]): 59.4%
- % T/C (MRI-H-254 tumors [2]; [8]): 40.6%
- % Inhibition (MRI-H-254 tumors [2]; day 29, PM00104 0.90, cisplatin 3, irinotecan 10, paclitaxel 12.5 mg/kg/day): 61.7%
- % Inhibition (MRI-H-254 tumors [2]; [9]): 61.7%
- % T/C (MRI-H-254 tumors [2]; [9]): 38.3%
- % Inhibition (MRI-H-254 tumors [2]; day 33, PM00104 0.90, cisplatin 3, irinotecan 10, paclitaxel 12.5 mg/kg/day): 72.0%
- % Inhibition (MRI-H-254 tumors [2]; [10]): 72.0%
- % T/C (MRI-H-254 tumors [2]; [10]): 28.0%
- % Inhibition (MRI-H-254 tumors [2]; day 40, PM00104 0.90, cisplatin 3, irinotecan 10, paclitaxel 12.5 mg/kg/day): 81.8%
- % Inhibition (MRI-H-254 tumors [2]; [11]): 81.8%
- % T/C (MRI-H-254 tumors [2]; [11]): 18.2%
- % Inhibition (MRI-H-254 tumors [2]; day 48, PM00104 0.90, cisplatin 3, irinotecan 10, paclitaxel 12.5 mg/kg/day): 84.4%
- % Inhibition (MRI-H-254 tumors [2]; [12]): 84.4%
- % T/C (MRI-H-254 tumors [2]; [12]): 15.6%
- IC50 [3]: 9 nM
